Test results from patent publication US20170015654A1, “PYRIDAZINE COMPOUND” (TAKEDA PHARMACEUTICAL COMPANY LIMITED, priority 2014, published 2017).

The compounds below were run on HCT116 cells (assay: Measurement of growth inhibitory activity using HCT116 cell). Details: Homo sapiens, HCT-116, 72 h, 1 μM compound, 3 days, CellTiter-Glo, read-out: Rate of inhibition of cell growth at compound concentration of 1 μM.
Format: cell-based
Procedure: Measurement of Growth Inhibitory Activity Using HCT116 Cell
Each compound was evaluated for its growth inhibitory activity against HCT116 cells (ATCC) by the following method: the HCT116 cells were inoculated at 900 cells/40 μL/well to a 384-well white plate (Greiner Bio-one) and maintained in an assay medium (RPMI medium (Wako Pure Chemical Industries, Ltd.) containing 2% fetal bovine serum, 50 units/mL penicillin and 50 μg/mL streptomycin (Invitrogen Corp.)). On the next day, the test compound dissolved in dimethyl sulfoxide (DMSO) was dispensed to the plate using TECAN D300 digital dispenser (Tecan Trading AG). Then, the concentration of DMSO in the medium was adjusted to 0.1% by the addition of DMSO. The HCT116 cells supplemented with the compound were incubated at 37° C. in a 5% CO2 environment (test compound addition group).
Also, the same reaction as above was carried out without the addition of the test compound (test compound non-addition group).
Further, the same reaction as above was carried out on condition that neither the HCT116 cells nor the test compound were added (control group).
After 3 days, 20 μL of CellTiter-Glo reagent (Promega Corp.) was added to each well, and the mixture was stirred for 10 minutes. Then, the light emission of each well was measured using ARVO MX1420 (PerkinElmer, Inc.).
The rate of inhibition of HCT116 cell growth (%) was determined according to the following calculation expression:
Rate of inhibition of cell growth=(1−(Light emission of the test compound addition group−Light emission of the control group)/(Light emission of the test compound non-addition group−Light emission of the control group))×100

| SMILES | inhibition at 1 µM [%] |
| --- | --- |
| N#CC1(c2ccc(S(F)(F)(F)(F)F)cc2)CCN(c2ccc(-c3nnc(CO)o3)nn2)CC1 [Example 58, 1-(6-(5-(Hydroxymethyl)-1,3,4-oxadiazol-2-yl)pyridazin-3-yl)-4-(4-(pentafluorosulfanyl)phenyl)piperidine-4-carbonitrile] | 88 |
| OCc1noc(-c2ccc(N3CCC(c4ccc(C(F)(F)F)cc4)(C(F)(F)F)CC3)nn2)n1 [Example 82, (5-(6-(4-(Trifluoromethyl)-4-(4-(trifluoromethyl)phenyl)piperidin-1-yl)pyridazin-3-yl)-1,2,4-oxadiazol-3-yl)methanol] | 89 |
| OCc1nnc(-c2ccc(N3CCC(c4ccc(C(F)(F)F)cc4)(C(F)(F)F)CC3)nn2)o1 [Example 84, (5-(6-(4-(Trifluoromethyl)-4-(4-(trifluoromethyl)phenyl)piperidin-1-yl)pyridazin-3-yl)-1,3,4-oxadiazol-2-yl)methanol] | 88 |
| COC1(c2ccc(S(F)(F)(F)(F)F)cc2)CCN(c2ccc(-c3nnc(CO)o3)nn2)CC1 [Example 93, (5-(6-(4-Methoxy-4-(4-(pentafluorosulfanyl)phenyl)piperidin-1-yl)pyridazin-3-yl)-1,3,4-oxadiazol-2-yl)methanol] | 85 |
| N#CC1(c2ccc(S(F)(F)(F)(F)F)cc2)CCN(c2ccc(-c3nc(CO)ns3)nn2)CC1 [Example 108, 1-(6-(3-(Hydroxymethyl)-1,2,4-thiadiazol-5-yl)pyridazin-3-yl)-4-(4-(pentafluorosulfanyl)phenyl)piperidine-4-carbonitrile] | 90 |
| N#CC1(c2ccc(S(F)(F)(F)(F)F)cc2)CCN(c2ccc(-c3nnc(CO)s3)nn2)CC1 [Example 109, 1-(6-(5-(Hydroxymethyl)-1,3,4-thiadiazol-2-yl)pyridazin-3-yl)-4-(4-(pentafluorosulfanyl)phenyl)piperidine-4-carbonitrile] | 88 |
| COC1(c2ccc(S(F)(F)(F)(F)F)cc2)CCN(c2ccc(-c3nc(CO)ns3)nn2)CC1 [Example 110, (5-(6-(4-Methoxy-4-(4-(pentafluorosulfanyl)phenyl)piperidin-1-yl)pyridazin-3-yl)-1,2,4-thiadiazol-3-yl)methanol] | 89 |
| COC1(c2ccc(S(F)(F)(F)(F)F)cc2)CCN(c2ccc(-c3nnc(CO)s3)nn2)CC1 [Example 111, (5-(6-(4-Methoxy-4-(4-(pentafluorosulfanyl)phenyl)piperidin-1-yl)pyridazin-3-yl)-1,3,4-thiadiazol-2-yl)methanol] | 86 |
| OCc1nsc(-c2ccc(N3CCC(c4ccc(C(F)(F)F)cc4)(C(F)(F)F)CC3)nn2)n1 [Example 112, (5-(6-(4-(Trifluoromethyl)-4-(4-(trifluoromethyl)phenyl)piperidin-1-yl)pyridazin-3-yl)-1,2,4-thiadiazol-3-yl)methanol] | 90 |
| OCc1nnc(-c2ccc(N3CCC(c4ccc(C(F)(F)F)cc4)(C(F)(F)F)CC3)nn2)s1 [Example 113, (5-(6-(4-(Trifluoromethyl)-4-(4-(trifluoromethyl)phenyl)piperidin-1-yl)pyridazin-3-yl)-1,3,4-thiadiazol-2-yl)methanol] | 84 |
